Tests used:
[1] = tested on: OVCAR8; assay: drug sensitivity score (DSS2) on cancer cell count; higher = more sensitive; extreme values may be limits of the assay; settings: 72 h
Summary of the method: (§1)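 Ovarian cancer cells grown alone or 1:1 with lung or skin fibroblasts in direct co-culture were treated for 72 h on 384-well plates carrying 528 approved and investigational compounds at 5 concentrations. Fixed cells were stained for CK8/18 with Hoechst and imaged to count cancer cells. A drug sensitivity score was then derived in Breeze from logistic curve fits.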

[2] = tested on: KURAMOCHI; assay: as above; settings: 72 h
Summary of the method: as §1

[3] = co-cultured fibroblast: BJHTERT
[4] = co-cultured fibroblast: none (monoculture)

Row | Structure (SMILES) | drug sensitivity score [1, 3] | drug sensitivity score ([1]; co-cultured fibroblast: WI38) | drug sensitivity score [1, 4] | drug sensitivity score [2, 3] | drug sensitivity score ([2]; co-cultured fibroblast: WI38) | drug sensitivity score [2, 4]
1 | COc1ccc(-c2nc(N3CCOCC3)c3sc(CN(C)c4ncc(C(=O)NO)cn4)cc3n2)cn1 [CUDC-907] | 43.2 DSS | 41.7 DSS | 30 DSS | 34.1 DSS | 28.6 DSS | 29.7 DSS
2 | CO[C@H]1C(=O)[C@]2(C)[C@@H](OC)C[C@H]3OC[C@@]3(OC(C)=O)[C@H]2[C@H](OC(=O)c2ccccc2)[C@]2(O)C[C@H](OC(=O)[C@H](O)[C@@H](NC(=O)OC(C)(C)C)c3ccccc3)C(C)=C1C2(C)C [Cabazitaxel] | 39.1 DSS | 36 DSS | 26 DSS | 27.5 DSS | 27.8 DSS | 21.4 DSS
3 | COc1cc2nccc(Oc3ccc(NC(=O)C4(C(=O)Nc5ccc(F)cc5)CC4)cc3)c2cc1OC [Cabozantinib] | 0 DSS | 0.2 DSS | 4.4 DSS | 0.4 DSS | 0 DSS | 0 DSS
4 | C=CC(=O)Nc1cc2c(Nc3ccc(F)c(Cl)c3)ncnc2cc1OCCCN1CCOCC1 [Canertinib] | 9.6 DSS | 8.3 DSS | 9.4 DSS | 9.4 DSS | 9.2 DSS | 24.2 DSS
5 | CCCCCOC(=O)Nc1nc(=O)n([C@@H]2O[C@H](C)[C@@H](O)[C@H]2O)cc1F [Capecitabine] | 0 DSS | 2.7 DSS | 1.2 DSS | 3.3 DSS | 0 DSS | 0 DSS
6 | CNC(=O)c1ccc(-c2cnc3ncc(Cc4ccc5ncccc5c4)n3n2)cc1F [Capmatinib] | 0 DSS | 0 DSS | 0 DSS | 0 DSS | 0 DSS | 0 DSS
7 | O=C(O)C1(C(=O)O)CCC1.[NH2-].[NH2-].[Pt+2] [Carboplatin] | 9.4 DSS | 8.6 DSS | 12.3 DSS | 13.3 DSS | 18.1 DSS | 22.9 DSS
8 | CC(C)C[C@H](NC(=O)[C@H](CCc1ccccc1)NC(=O)CN1CCOCC1)C(=O)N[C@@H](Cc1ccccc1)C(=O)N[C@@H](CC(C)C)C(=O)[C@@]1(C)CO1 [Carfilzomib] | 26.2 DSS | 18 DSS | 17.8 DSS | 21.8 DSS | 23.4 DSS | 22.6 DSS
9 | COc1cc2c(Oc3ccc4[nH]c(C)cc4c3F)ncnc2cc1OCCCN1CCCC1 [Cediranib] | 0 DSS | 0 DSS | 0 DSS | 0 DSS | 0 DSS | 0 DSS
10 | Cc1ccc(-c2cc(C(F)(F)F)nn2-c2ccc(S(N)(=O)=O)cc2)cc1 [Celecoxib] | 0.1 DSS | 0 DSS | 0.1 DSS | 0 DSS | 0 DSS | 0.5 DSS
11 | CCS(=O)(=O)N1CCN(c2ccc(Nc3ncc(C(N)=O)c(NC4CC4)n3)cc2)CC1 [Cerdulatinib] | 0 DSS | 4.3 DSS | 1.1 DSS | 0 DSS | 4.3 DSS | 1.1 DSS
12 | Cc1cc(Nc2ncc(Cl)c(Nc3ccccc3S(=O)(=O)C(C)C)n2)c(OC(C)C)cc1C1CCNCC1 [Ceritinib] | 1.8 DSS | 0 DSS | 3.7 DSS | 1.3 DSS | 0 DSS | 2.2 DSS
13 | CC(C)[C@H]1C(=O)N[C@@H](CCCNC(=N)N)C(=O)NCC(=O)N[C@@H](CC(=O)O)C(=O)N[C@H](Cc2ccccc2)C(=O)N1C [Cilengitide] | 9.6 DSS | 16.3 DSS | 13.2 DSS | 5.8 DSS | 3.3 DSS | 7.4 DSS
14 | N.N.[Cl][Pt][Cl] [Cisplatin] | 7.2 DSS | 9.4 DSS | 8.5 DSS | 1.6 DSS | 6.5 DSS | 4.7 DSS
15 | Nc1nc(Cl)nc2c1ncn2[C@H]1C[C@H](O)[C@@H](CO)O1 [Cladribine] | 14.7 DSS | 20.7 DSS | 15.7 DSS | 5.2 DSS | 6.7 DSS | 1.4 DSS
16 | Nc1nc(Cl)nc2c1ncn2[C@@H]1O[C@H](CO)[C@@H](O)[C@@H]1F [Clofarabine] | 30.7 DSS | 28.7 DSS | 27.7 DSS | 13 DSS | 19.7 DSS | 10.7 DSS
17 | CCN(CC)CCOc1ccc(C(=C(Cl)c2ccccc2)c2ccccc2)cc1 [Clomifene] | 4.3 DSS | 10.1 DSS | 1.9 DSS | 3.7 DSS | 5.6 DSS | 7.9 DSS
18 | O=C(c1ccc(F)c(F)c1Nc1ccc(I)cc1F)N1CC(O)([C@@H]2CCCCN2)C1 [Cobimetinib] | 8.4 DSS | 2.1 DSS | 9.6 DSS | 11.5 DSS | 6.4 DSS | 7.2 DSS
19 | CC1(COc2ccc3c(c2)ncn3-c2ccc3cccc(N4CCC(N)CC4)c3n2)COC1 [Crenolanib] | 4.7 DSS | 14.6 DSS | 5.5 DSS | 12.6 DSS | 10.5 DSS | 18 DSS
20 | C[C@@H](Oc1cc(-c2cnn(C3CCNCC3)c2)cnc1N)c1c(Cl)ccc(F)c1Cl [Crizotinib] | 0.7 DSS | 0 DSS | 0 DSS | 0 DSS | 0 DSS | 0 DSS
21 | CC(C)(C)c1nc(-c2cccc(NS(=O)(=O)c3c(F)cccc3F)c2F)c(-c2ccnc(N)n2)s1 [Dabrafenib] | 0.2 DSS | 15.2 DSS | 0.5 DSS | 0 DSS | 0 DSS | 0 DSS
22 | COc1cc2ncnc(Nc3ccc(F)c(Cl)c3)c2cc1NC(=O)/C=C/CN1CCCCC1 [Dacomitinib] | 5.5 DSS | 0 DSS | 3.2 DSS | 7 DSS | 3.7 DSS | 8.3 DSS
23 | Cc1c2oc3c(C)ccc(C(=O)N[C@@H]4C(=O)N[C@H](C(C)C)C(=O)N5CCC[C@H]5C(=O)N(C)CC(=O)N(C)[C@@H](C(C)C)C(=O)O[C@@H]4C)c3nc-2c(C(=O)N[C@@H]2C(=O)N[C@H](C(C)C)C(=O)N3CCC[C@H]3C(=O)N(C)CC(=O)N(C)[C@@H](C(C)C)C(=O)O[C@@H]2C)c(N)c1=O [Dactinomycin] | 31.6 DSS | 32.4 DSS | 31.8 DSS | 25.7 DSS | 25.9 DSS | 34 DSS
24 | Cn1c(=O)n(-c2ccc(C(C)(C)C#N)cc2)c2c3cc(-c4cnc5ccccc5c4)ccc3ncc21 [Dactolisib] | 13.3 DSS | 8.2 DSS | 17.6 DSS | 12.4 DSS | 15.5 DSS | 20.5 DSS
